# Patent publication US20040034216A1, “3-Nitrogen-6,7-dioxygen steroids and uses related thereto” (priority 2003, published 2004)
# Where a name gives a salt, the structure may show the parent alone. Read-outs that look alike come from different tables or passages of the source.
# Tests used:
# [1] = tested on: Jurkat clone E6.1 cells; test: Antigen-induced calcium flux in anti-CD3 stimulated Jurkat cells (Fura 2AM); type: cell-based; conditions: anti-CD3 mAb stimulated Jurkat clone E6.1 cells; for inhibition at 20 µM: Homo sapiens
# Excerpt: Elevation of cytoplasmic calcium concentration is a common and crucial event which follows the activation of many types of cell surface receptors. Increases in intracellular calcium that occur following agonist activation of inositol lipid hydrolysis are the results of calcium release from the endoplasmic reticulum and the influx of calcium through the plasma membrane. Increases in cytosolic calcium concentration are involved in many important cellular responses in the inflammatory process including adhesion, motility, gene expression, proliferation, and degranulation. Changes in intracellular calcium concentrations can affect both short and long term cellular responses. An assay method to evaluate a test compound's impact on calcium flux is provided as follows.
# The resulting supernatants are discarded and each pellet is washed in 10 mL HBSS. Cell suspensions are accumulated and centrifuged for 5 minutes at 900 RPM to form a cell pellet. The resulting supernatant is discarded and the pellet is resuspended in HBSS at 1×10^7cells/mL. The cell suspension is transferred to a 20 mm petri dish and incubated at 37° C., 5% CO2 for 20 minutes.
# One volume of Fura 2AM is mixed to one volume of detergent Pluronic F127. Cells are labeled with 4 μL of probe solution to each mL of cell suspension. The petri dish is wrapped in aluminum foil to protect from light and placed on a plate shaker for 30 minutes at room temperature.
# The following steps are done in the laminar flow hood with the fluorescent lights turned off. The petri dish is removed from the shaker and the labeled cell suspension is transferred to a 15 mL conical tube and washed twice with HBSS as above. The cell pellet is resuspended in 12 mL HBSS and left wrapped in foil for 30 minutes at room temperature. The labeled cell suspension is aliquoted (100 μL/well) into a Dynex 96 well white opaque tissue culture plate. […] Selected compounds were tested for dose related activity. Test samples and activator (anti-CD3 mAb at final concentration of 4 μg/mL, PharMingen) are added manually (50 μL), such that the minimum time to acquire the first data point after stimulation is approximately 30 seconds. The calcium influx response to anti-CD3 mAb is measured as an “end point” assay. The entire plate is read in 100 seconds using a kinetic of 1 second per well.
# The plate is read before the addition of anti-CD3 to monitor non-specific effect of samples/drugs. Fluorescence emission is measured at 510 nm with excitation alternating between 340 and 380 every second using an excitation/emission filter pair. Data from these dual wavelengths are represented as a ratio of 2 excitations wavelengths. This ratio is independent of intracellular dye and cell concentrations, enabling real comparison between experiments.
# [2] = tested on: sensitized Brown Norway rats; test: Ovalbumin-induced accumulation of inflammatory cells in lung lavage fluid (allergen-induced lung inflammation); type: in vivo, rat; conditions: p.o., corn oil, lung lavage fluid; for % inhibition of eosinophils: 5 mg/kg/day for 4 days, relative to control animals
# Procedure: The ability of a compound to inhibit the allergen-induced accumulation of inflammatory cells such as eosinophils and neutrophils in the lavage fluid obtained from sensitized animals is indicative of that compound's anti-asthma activity. […] The test is conducted as follows.
# Male Brown Norway rats are sensitized to ovalbumin by single intraperitoneal injection of 1 mg ovalbumin adsorbed to 100 mg […] (alum) in 1 ml sterile saline (saline control rats receive only sterile saline) on day 1, and allowed to sensitize until day 21. […] Rats are challenged with 0.5% ovalbumin in saline generated using a Devillbis nebulizer for 60 min on day 21.
# Forty-eight hrs after challenge, animals are sacrificed with an overdose of intraperitoneally-delivered sodium pentobarbitol and the lungs are lavaged with cold 2×7 ml phosphate buffered saline. The recovered lavage fluid is placed on ice. The bronchoalveolar lavage fluid is centrifuged and the supernatant removed. The pellet is resuspended in phosphate buffered saline at 4° C. Cytospins are prepared and stained for differentiation and enumeration of cell types.
# Test compound was administered in 300 μl corn oil (Tables 7 and 8) or water (Table 9), which were used as vehicles. Control animals received 300 μl corn oil or water alone, i.e., no drug. […] A negative value in Table 7, 8, or 9 indicates an exacerbation of the effect over the control animal.
# [3] = tested on: Rat Mast Cell Line (RBL-2H3); test: Antigen-induced release of hexosaminidase from a rat mast cell line (RBL-2H3); type: cell-based; conditions: Rattus norvegicus, RBL-2H3, inhibition of antigen (DNP-HSA)-induced hexosaminidase release, tested at 0.3, 3, 10 and 30 μM, read-out: Hex IC50
# Procedure: The anti-allergic effects of a compound of the present invention was evaluated by measuring its effect on antigen-induced secretion of hexosaminidase from a passively sensitized rat mast cell line. The ability of a test compound to inhibit the release of mast cell granule contents, e.g., histamine and hexosaminidase, is indicative of the anti-allergy and/or anti-asthma activity of the compound. Hexosaminidase is released from the mast cell granule along with histamine and other mediators during antigen challenge. The test is performed as follows.
# RBL-2H3 cells are grown in culture and passively sensitized for 1 hour at 37° C. to dinitrophenol (DNP) using anti-human-DNP (IgE). Cells are incubated with test compound for 30 minutes at 37° C. and stimulated with 0.5 μg/ml DNP-HSA (antigen) for 30 minutes. Aliquots of the supernatant are removed and used to measure the amount of hexosaminidase released during challenge with the antigen. The amount of hexosaminidase present in the supernatant is determined colorimetrically by monitoring the enzymatic metabolism of p-nitrophenyl-N-acetyl-β-D-glucosaminide (p-NAG) over a period of 60 minutes at 405 nm. The effect of each test compound is determined as a percentage of the antigen-induced response (minus background release) obtained in the presence of DMSO alone. These values are used to determine the degrees of inhibition of antigen-induced hexosaminidase release from the cells.
# [4] = Jurkat, read-out: Calcium (% inhibition at 20 μM), 20 μM
compound,measurement,setting,value
CCC1(C)CCC2=C1CCC1C2C(O)C(O)C2CC(Nc3ccccc3)CCC21C.Cl (mixture of isomers) [Compound 144],Calcium (% inhibition at 20 μM),[1]; 20 μM,13.0%
CCC1(C)CCC2=C1CCC1C2C(O)C(O)C2CC(Nc3cccc(C(F)(F)F)c3)CCC21C.Cl (mixture of isomers) [Compound 145],Calcium (% inhibition at 20 μM),[1]; 20 μM,−0.2%
CC=C1CCC2C3C(CC[C@]12C)[C@@]1(C)CCC(N)CC1[C@@H](O)[C@@H]3O (stereo partly shown) [Compound 49],% inhibition of eosinophils,[2],52%
C=C1CCC2C3C(CC[C@]12C)[C@@]1(C)CCC(N)CC1[C@@H](O)[C@@H]3O (stereo partly shown) [Compound 53],% inhibition of eosinophils,[2],24%
C=C1CCC2C3C(CC[C@]12C)[C@@]1(C)CCC(N)CC1[C@@H](O)[C@@H]3O (stereo partly shown) [Compound 54],IC50,[3],16.1 µM
CC(F)=C1CCC2C3C(CC[C@]12C)[C@@]1(C)CCC(N)CC1[C@@H](O)[C@@H]3O (stereo partly shown) [Compound 64],IC50,[3],14.4 µM
same,inhibition at 20 µM,[1]; [4],6.7%
same,% inhibition of eosinophils,[2],62%
COC(=O)C=C1CCC2C3C(CC[C@]12C)[C@@]1(C)CCC(N)CC1[C@@H](O)[C@@H]3O (stereo partly shown) [Compound 69],IC50,[3],21.2 µM
same,inhibition at 20 µM,[1]; [4],11.2%
"C[C@]12CC[C@@H](N)CC1[C@@H](O)[C@H](O)[C@@H]1[C@@H]2CC[C@]2(C)C(=O)CC[C@@H]12 (stereo partly drawn) [Compound 70, 3α-amino-6α,7β-dihydroxyandrostan-17-one acetic acid salt]",inhibition at 20 µM,"[1]; read-out: Calcium (% inhibition at 20 μM), 20 μM",7%
C[C@]12CCC3C(C1CCC2O)[C@@H](O)[C@H](O)C1CC(N)CC[C@]31C (stereo partly shown) [Compound 72],inhibition at 20 µM,[1]; [4],10.3%
C=C1CCC2C3C(CC[C@]12C)[C@@]1(C)CCC(N)CC1[C@@H](OC)[C@@H]3OC (stereo partly shown) [Compound 78],IC50,[3],20.1 µM
same,inhibition at 20 µM,[1]; [4],5.3%
CC(F)=C1CCC2C3C(CC[C@]12C)[C@@]1(C)CCC(N)CC1[C@@H](O)[C@@H]3O (stereo partly shown) [Compound 95],% inhibition of eosinophils,[2],14%
CCC1CCC2C3C(CC[C@]12C)[C@@]1(C)CCC(N)CC1[C@@H](O)[C@@H]3O (stereo partly shown) [Compound 96],IC50,[3],7.8 µM
same,inhibition at 20 µM,[1]; [4],47.9%
same,% inhibition of eosinophils,[2],−9%
CCC1CCC2C3C(CC[C@]12C)[C@@]1(C)CCC(N)CC1[C@@H](O)[C@@H]3O (stereo partly shown) [Compound 97],% inhibition of eosinophils,[2],40%
C=C1CCC2C3C(CC[C@]12C)[C@@]1(C)CC[C@@H](NCc2ccc(C(C)C)cc2)CC1[C@@H](O)[C@@H]3O (stereo partly shown) [Compound 100],IC50,[3],18.2 µM
same,inhibition at 20 µM,[1]; [4],33.2%
C=C1CCC2C3C(O)C(O)C4CC(NCc5cccc(C(F)(F)F)c5)CCC4(C)C3CCC12C.CC(=O)O (stereo not shown) [Compound 102],Calcium (% inhibition at 20 μM),[1]; 20 μM,9.5%
C=C1CCC2C3C(O)C(O)C4CC(NCc5cccc([N+](=O)[O-])c5)CCC4(C)C3CCC12C (stereo not shown) [Compound 106],Calcium (% inhibition at 20 μM),[1]; 20 μM,8.1%
C=C1CCC2C3C(O)C(O)C4CC(NCc5cccnc5)CCC4(C)C3CCC12C.Cl.Cl (stereo not shown) [Compound 107],% inhibition of lymphocytes,[2]; 1 mg/kg/day for 4 days,−28%
same,% inhibition of neutrophils,[2]; 1 mg/kg/day for 4 days,23%
